Reference: article PMC9497135, “Structure-Based Study to Overcome Cross-Reactivity of Novel Androgen Receptor Inhibitors” (Cells, 2022)
Positions count from the first letter of the chain named.

Experiments:
[1] = molecular target: T1, AR (LNCaP cells, which carry the T878A AR mutation) (Homo sapiens, UniProt P10275, T878A); experiment: eGFP cellular AR transcription assay in LNCaP cells (LN-ARR2PB-eGFP); assay type: cell-based; conditions: for Anti-AR activity in eGFP assay: eGFP-expressing LNCaP cells; for Partial agonistic effect in eGFP assay: with R1881, high concentrations
T1 construct: LNCaP cells, which carry the T878A AR mutation; endogenous in cells; host or cells: LNCaP (LN-ARR2PB-eGFP)
T1 sequence (P10275 1-920 T878A): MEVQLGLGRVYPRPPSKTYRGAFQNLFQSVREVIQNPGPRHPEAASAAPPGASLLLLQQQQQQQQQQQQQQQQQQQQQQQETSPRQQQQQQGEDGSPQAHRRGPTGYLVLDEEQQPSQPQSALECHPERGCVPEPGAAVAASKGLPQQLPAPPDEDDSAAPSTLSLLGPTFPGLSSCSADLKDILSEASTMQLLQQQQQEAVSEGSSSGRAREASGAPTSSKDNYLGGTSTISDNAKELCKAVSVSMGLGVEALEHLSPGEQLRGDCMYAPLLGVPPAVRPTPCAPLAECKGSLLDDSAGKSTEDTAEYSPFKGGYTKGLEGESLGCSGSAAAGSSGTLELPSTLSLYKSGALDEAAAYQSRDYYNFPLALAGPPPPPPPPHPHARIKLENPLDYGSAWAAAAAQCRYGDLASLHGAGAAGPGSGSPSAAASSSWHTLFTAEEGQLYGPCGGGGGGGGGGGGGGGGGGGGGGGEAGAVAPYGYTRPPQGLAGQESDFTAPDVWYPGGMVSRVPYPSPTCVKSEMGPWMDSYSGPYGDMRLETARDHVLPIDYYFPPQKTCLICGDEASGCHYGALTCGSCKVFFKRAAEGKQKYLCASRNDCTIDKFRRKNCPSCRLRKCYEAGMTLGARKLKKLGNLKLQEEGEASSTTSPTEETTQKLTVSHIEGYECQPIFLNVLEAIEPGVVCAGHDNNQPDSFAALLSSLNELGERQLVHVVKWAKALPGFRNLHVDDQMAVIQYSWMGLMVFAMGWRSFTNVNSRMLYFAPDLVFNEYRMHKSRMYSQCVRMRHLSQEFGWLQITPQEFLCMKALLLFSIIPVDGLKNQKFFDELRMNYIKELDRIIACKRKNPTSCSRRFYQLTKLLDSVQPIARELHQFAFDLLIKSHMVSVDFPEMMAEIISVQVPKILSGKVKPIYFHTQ
Procedure: AR transcriptional activity was assayed as previously described. Briefly, LNCaP human prostate cancer cells (LN-ARR2PB-eGFP), stably transfected with eGFP reporter driven by an androgen responsive probasin-derived promoter (ARR2PB), were grown in phenol red free RPMI 1640 media supplemented with 5% charcoal stripped serum (CSS). After 5 days, the cells were plated into a 96-well plate (35,000 cells/well) with 0.1 nM of the synthetic androgen R1881 and increasing concentrations (0−100 μM) of test compounds. Fluorescence (excitation 485 nm, emission 535 nm) was measured after 3 days of incubation with the compounds.

Androgen Receptor ABS = molecular target: T2, Androgen Receptor ABS (Rattus norvegicus, UniProt P15207); experiment: Androgen (DHT) displacement, Polar Screen Androgen Receptor Competitor Green Assay Kit; assay type: binding; conditions: for Androgen Displacement (Yes/No): fluorescence polarization kit; for Androgen displacement: at 50 µM
T2 construct: purchased
T2 sequence (P15207 647-902 limits assumed): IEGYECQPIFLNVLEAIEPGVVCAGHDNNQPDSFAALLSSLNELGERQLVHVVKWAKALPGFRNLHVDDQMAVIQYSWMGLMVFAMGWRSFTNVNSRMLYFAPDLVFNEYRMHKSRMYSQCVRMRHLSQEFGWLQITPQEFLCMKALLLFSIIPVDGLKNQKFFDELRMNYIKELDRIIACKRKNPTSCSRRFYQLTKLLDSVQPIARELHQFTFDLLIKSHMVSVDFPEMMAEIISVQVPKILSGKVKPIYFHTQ
Procedure: Androgen displacement was assessed with the Polar Screen Androgen Receptor Competitor Green Assay Kit as per the instructions of the manufacturer.

wild type AR LBD = molecular target: T3, wild type AR LBD (Homo sapiens, UniProt P10275); experiment: Biolayer interferometry (BLI), wild type LBD; assay type: binding
T3 construct: made in house; host or cells: E. coli BL21-DE3 co-transformed with pBirACm
T3 sequence (P10275 669-900 limits assumed): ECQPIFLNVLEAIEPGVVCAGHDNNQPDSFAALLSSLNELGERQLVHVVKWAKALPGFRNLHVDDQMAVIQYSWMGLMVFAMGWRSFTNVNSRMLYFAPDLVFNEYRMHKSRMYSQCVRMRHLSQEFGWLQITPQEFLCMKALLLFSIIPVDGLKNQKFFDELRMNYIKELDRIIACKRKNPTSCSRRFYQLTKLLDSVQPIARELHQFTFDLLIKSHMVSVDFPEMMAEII
Procedure: (§1) The direct reversible interaction between small molecules and the AR was quantified by BLI using OctetRED (ForteBio, Fremont, CA, USA). The wild type and T878A-LDB in fusion with an N-terminal (His)6-avidin ([…]) tag were expressed in E. coli BL21-DE3 cells co-transformed with pBirACm plasmid (Avidity), which expresses a biotin ligase leading to the biotynilation of the avidin tag on the LBD. Cells were grown in LB media at 37 °C to an OD600nm = 0.5 and then induced with 0.5 mM isopropyl-β-D-thiogalactoside. A measure of 20 µM of dihydrotestosterone (DHT) and 0.15 mM biotin were added and the cells were incubated at 16 °C for 18 to 20 h. Cells were then resuspended and lysed in buffer containing 500 mM Li2SO4, 50mM HEPES pH7.2, 10% Glycerol, 0.1% Octyl-beta-Glucoside, 20 µM of DHT, 5 mM β-mercaptoethanol, 10 mM imidazole and 0.1 mM phenylmethanesulfonyl fluoride. […] After an overnight dialysis against 150 mM Li2SO4, 50 mM HEPES pH7.2, 10% Glycerol, 0.1% Octyl-beta-Glucoside, 20 µM of DHT and 0.2 mM tris(2-carboxyethyl)phosphine, purified proteins at 50 µg/mL were bound to the super-streptavidin sensors overnight at 4 °C. The assay was performed at 20 °C in the dialysis buffer supplemented with 5% dimethyl sulfoxide (DMSO) which was also used as our reference measurement.

T878A AR LBD = molecular target: T4, T878A AR LBD (Homo sapiens, UniProt P10275, T878A); experiment: Biolayer interferometry (BLI), T878A LBD; assay type: binding
T4 construct: made in house; host or cells: E. coli BL21-DE3 co-transformed with pBirACm
T4 sequence (P10275 669-900 T878A limits assumed): T3 sequence (P10275 669-900 limits assumed) with T210A
Procedure: as §1

T878A-AR mutant = molecular target: T5, T878A-AR mutant (Homo sapiens, UniProt P10275, T878A); experiment: Luciferase reporter assay, PC3 cells transfected with T878A-AR; assay type: cell-based; conditions: T878A-AR, high concentrations, absence of R1881
T5 construct: Full-length human wild type AR was cloned into pcDNA3.1 expression plasmid; expressed in transfected cells; host or cells: PC3
T5 sequence (P10275 1-920 T878A): T1 sequence (P10275 1-920 T878A)
Procedure: Full-length human wild type AR was cloned into pcDNA3.1 expression plasmid (Invitrogen, Waltham, MA, USA) with a CMV promoter. The T878A mutant (T878A-AR) was generated with the Quikchange Mutagenesis Kit (Stratagene, San Diego, CA, USA) using hARWT plasmid as a template. Androgen-starved PC3 cells were seeded in 96-well plates (3000 cells/well) in RPMI 1640 + 5% CSS for 24 h followed by transfection with 50 ng of hARWT or hART878A along with 50 ng of ARR3tk-luciferase reporter construct (100 ng total plasmid DNA) and 0.3 µL/well TransIT20/20 transfection reagent (TT2020, Mirus, Madison, Wisconsin, WI, USA) for 48 h. […] Cell lysis was carried out with 60 µL 1X passive lysis buffer/well (Promega, Madison, Wisconsin, WI, USA). The luminescence from 20 µL of cell lysate and 50 µL of Luciferase assay reagent (Promega, Madison, Wisconsin, WI, USA) was recorded on a TECAN M200pro plate reader.

[2] = system: AR with T878A and W742C mutations; design: method as in PMID 12517791; conditions: cited from earlier work
[3] = LNCaP eGFP reporter (ARR2PB promoter), 0.1 nM R1881, 3 days

Structure (SMILES) | Reporter eGFP IC50 [1, 3] | Anti-AR activity in eGFP assay [1] | Partial agonistic effect in eGFP assay ([1]; LNCaP) | Androgen Displacement (Yes/No) (Androgen Receptor ABS) | Androgen displacement (Androgen Receptor ABS) | also measured
c1cc2c(cc1-c1csc(N3CCOCC3)n1)CCCC2 [VPC14291] | inactive | lost their anti-AR activity | – | – | – | –
c1cc(-c2csc(N3CCOCC3)n2)ccn1 [VPC14435] | – | maintained good potency | no undesired partial agonistic effects were observed | No | – | –
Brc1ncn(-c2csc(N3CCOCC3)n2)c1Br [VPC14449] | – | maintained good potency | no undesired partial agonistic effects were observed | – | < 10% | Direct binding to wild-type LBD by BLI (wild type AR LBD): not binding; Direct binding to T878A LBD by BLI (T878A AR LBD): not binding; IC50 [1, 3]: 150 ± 40 nM; Androgen displacement (Androgen Receptor ABS; listed as 14449): <10%; Reduction of AR stimulation in comparison with VPC14368 (T878A-AR mutant): ~ 80%
c1cc(-c2csc(N3CCOCC3)n2)cs1 [VPC14404] | – | maintained good potency | no undesired partial agonistic effects were observed | – | <10% | –
c1ccc(-c2csc(N3CCOCC3)n2)nc1 [VPC14436] | – | – | – | No | – | –
C[C@](O)(CS(=O)(=O)c1ccc(F)cc1)C(=O)Nc1ccc(C#N)c(C(F)(F)F)c1 [R-bicalutamide] | – | – | – | – | – | Agonist behaviour on mutated AR [2]: acts as an agonist only when the T878A mutation is also coupled with W742C
c1cncc(-c2csc(N3CCOCC3)n2)c1 [VPC14439] | – | – | – | Yes | 30% | Concentration above which partial agonism is seen in the eGFP assay ([1]; LNCaP, 0.1 nM R1881): above 3 µM
c1sc(N2CCOCC2)nc1C1CCCCC1 [VPC14406] | inactive | lost their anti-AR activity | – | – | – | –
c1sc(N2CCOCC2)nc1C1CCCC1 [VPC14403] | inactive | lost their anti-AR activity | – | – | – | –
